Each compound was assayed against hQC (Homo sapiens, UniProt Q16769) (assay: Fluorometric assay of glutaminyl cyclase (QC) inhibition, H-Gln-βNA or H-Gln-AMC substrate). Settings: read-out: IC50.
Format: biochemical
Summary of the method: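 Fluorometric coupled assays at 30° C in Tris/HCl pH 8.0 with EDTA and pyroglutamyl aminopeptidase used either 0.2 mM H-Gln-βNA (320/410 nm) or H-Gln-AMC (380/460 nm), started by QC. Screening used 4 mM inhibitor at substrate 1 KM. Ki came from fitting progress curves to competitive inhibition.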

hQC, sequence (Q16769 29-361): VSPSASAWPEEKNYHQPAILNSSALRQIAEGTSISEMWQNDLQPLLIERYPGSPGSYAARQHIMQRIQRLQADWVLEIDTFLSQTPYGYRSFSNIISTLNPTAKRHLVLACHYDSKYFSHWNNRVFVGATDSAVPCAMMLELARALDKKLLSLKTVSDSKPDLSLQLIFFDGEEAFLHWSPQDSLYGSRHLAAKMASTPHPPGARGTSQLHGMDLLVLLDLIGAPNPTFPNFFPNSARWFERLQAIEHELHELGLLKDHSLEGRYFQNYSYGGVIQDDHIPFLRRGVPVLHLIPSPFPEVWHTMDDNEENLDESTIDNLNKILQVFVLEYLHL

Structure (SMILES) | IC50 [µM]
Cc1ccc(C2/C(=N\CCc3c[nH]c4ccccc34)NC(=O)N2c2ccc3[nH]cnc3c2)c(C)c1 (centres unmarked) [Compound 219, 1-(1H-Benzoimidazol-5-yl)-5-(2,4-dimethyl-phenyl)-4-2-(1H-indol-3-yl)-ethylimino-imidazolidin-2-one] | 0.004
O=C1N/C(=N/CCc2c[nH]c3ccccc23)C(c2cc(F)cc(F)c2)N1CCCn1ccnc1 (centres unmarked) [Compound 53, 5-(3,5-Difluoro-phenyl)-1-(3-imidazol-1-yl-propyl)-4-2-(1H-indol-3-yl)-ethylimino-imidazolidin-2-one] | 4
O=C1N/C(=N/Cc2ccccc2)C(c2ccc(O)cc2)N1CCCn1ccnc1 (centres unmarked) [Compound 99, 4-Benzylimino-5-(4-hydroxy-phenyl)-1-(3-imidazol-1-yl-propyl)-imidazolidin-2-one] | 6.7
O=C1N/C(=N/Cn2nnc3ccccc32)C(c2ccc3[nH]ccc3c2)N1c1ccc2[nH]cnc2c1 (centres unmarked) [Compound 173, 1-(1H-Benzoimidazol-5-yl)-4-benzotriazol-1-ylmethylimino-5-(1H-indol-5-yl)-imidazolidin-2-one] | 0.004
O=C1NC(=NCC2CCCO2)C(c2cccc(F)c2F)N1CCCn1ccnc1 (centres unmarked) [Compound 114, 5-(2,3-Difluoro-phenyl)-1-(3-imidazol-1-yl-propyl)-4-tetrahydro-furan-2-ylmethylimino-imidazolidin-2-one] | 8.5
CCc1ccccc1/N=C1\NC(=O)N(c2ccc3[nH]cnc3c2)C1c1ccc2c(c1)OCO2 (centres unmarked) [Compound 287, 5-Benzo1,3dioxol-5-yl-1-(1H-benzoimidazol-5-yl)-4-2-ethyl-phenylimino-imidazolidin-2-one] | 3.1
CN(C)c1ccc(C2/C(=N\Cc3cccnc3)NC(=O)N2c2ccc3[nH]cnc3c2)cc1 (centres unmarked) [Compound 180, 1-(1H-Benzoimidazol-5-yl)-5-(4-dimethylamino-phenyl)-4-pyridin-3-ylmethylimino-imidazolidin-2-one] | 0.4
O=C1N/C(=N\C2CC2)C(c2ccccc2C(F)(F)F)N1c1ccc2[nH]cnc2c1 (centres unmarked) [Compound 158, 1-(1H-Benzoimidazol-5-yl)-4-cyclopropylimino-5-(2-trifluoromethyl-phenyl)-imidazolidin-2-one] | 4.9
O=C(C/N=C1/NC(=O)N(CCCn2ccnc2)C1c1ccsc1)N1CCc2ccccc2C1 (centres unmarked) [Compound 65, 4-2-(3,4-Dihydro-1H-isoquinolin-2-yl)-2-oxo-ethylimino-1-(3-imidazol-1-yl-propyl)-5-thiophen-3-yl-imidazolidin-2-one] | 5.8
O=C1N/C(=N/CCc2c[nH]c3ccccc23)C(c2ccccc2)N1CCCn1ccnc1 (centres unmarked) [Compound 49, 1-(3-Imidazol-1-yl-propyl)-4-2-(1H-indol-3-yl)-ethylimino-5-phenyl-imidazolidin-2-one] | 4.9
O=C(C/N=C1/NC(=O)N(c2ccc3nc[nH]c3c2)C1c1ccc2[nH]ccc2c1)N1CCC(O)CC1 (centres unmarked) [Compound 248, 1-(3H-Benzoimidazol-5-yl)-4-2-(4-hydroxy-piperidin-1-yl)-2-oxo-ethylimino-5-(1H-indol-5-yl)-imidazolidin-2-one] | 0.4
O=C1NC(c2cc(F)cc(F)c2)/C(=N\CC(O)c2ccccc2)N1c1ccc2[nH]cnc2c1 (centres unmarked) [Compound 153, 1-(1H-Benzoimidazol-5-yl)-5-(3,5-difluoro-phenyl)-4-2-hydroxy-2-phenyl-ethylimino-imidazolidin-2-one] | 0.4
Cc1cccc(C2/C(=N\Cn3nnc4ccccc43)NC(=S)N2c2ccc3nc[nH]c3c2)n1 (centres unmarked) [Compound 277, 1-(3H-Benzoimidazol-5-yl)-4-benzotriazol-1-ylmethylimino-5-(6-methyl-pyridin-2-yl)-imidazolidine-2-thione] | 4
CC(/N=C1\NC(=O)N(CCCn2ccnc2)C1c1ccccc1Cl)c1ccccc1 (centres unmarked) [Compound 10, 5-(2-Chloro-phenyl)-1-(3-imidazol-1-yl-propyl)-4-1-phenyl-ethylimino-imidazolidin-2-one] | 6.2
CC(CC1/C(=N/C2CCCCCC2)NC(=S)N1c1ccc2nc[nH]c2c1)CC(C)(C)C (centres unmarked) [Compound 315, 1-(3H-Benzoimidazol-5-yl)-4-cycloheptylimino-5-(2,4,4-trimethyl-pentyl)-imidazolidine-2-thione] | 7.6
Oc1cccc(C2/C(=N/c3cc(Cl)ccc3Cl)NC(=S)N2c2ccc3[nH]cnc3c2)c1 (centres unmarked) [Compound 214, 1-(1H-Benzoimidazol-5-yl)-4-2,5-dichloro-phenylimino-5-(3-hydroxy-phenyl)-imidazolidine-2-thione] | 7.6
O=C1CCCN1CCC/N=C1/NC(=O)N(c2ccc3[nH]cnc3c2)C1c1ccc2nsnc2c1 (centres unmarked) [Compound 155, 1-(1H-Benzoimidazol-5-yl)-5-benzo[c][1,2,5]thiadiazol-5-yl-4-3-(2-oxo-pyrrolidin-1-yl)-propylimino-imidazolidin-2-one] | 0.004
CCCC/N=C1/NC(=O)N(CCCn2ccnc2)C1c1cc(F)cc(F)c1 (centres unmarked) [Compound 37, 4-Butylimino-5-(3,5-difluoro-phenyl)-1-(3-imidazol-1-ylpropyl)-imidazolidin-2-one] | 5.8

Further compounds by falling IC50, results first:

IC50 [µM] | Structure (SMILES)
9.4 | Cc1ccc(C2/C(=N/C(C)(C)CC(C)(C)C)NC(=S)N2c2ccc3nc[nH]c3c2)c(C)c1 (centres unmarked) [Compound 332, 1-(3H-Benzoimidazol-5-yl)-5-(2,4-dimethyl-phenyl)-4-1,1,3,3-tetramethyl-butylimino-imidazolidine-2-thione]
8.5 | O=C(C/N=C1/NC(=O)N(c2ccc3[nH]cnc3c2)C1C1=CCCCC1)N1CCSCC1 (centres unmarked) [Compound 265, 1-(1H-Benzoimidazol-5-yl)-5-cyclohex-1-enyl-4-2-oxo-2-thiomorpholin-4-yl-ethylimino-imidazolidin-2-one]
6.7 | COc1ccc(C2C(=NCC(=O)N3CCSCC3)NC(=S)N2c2ccc3[nH]cnc3c2)c(F)c1 (centres unmarked) [Compound 225, 2-(1-(1H-Benzo[d]imidazol-5-yl)-5-(2-fluoro-4-methoxyphenyl)-2-thioxoimidazolidin-4-ylideneamino)-1-thiomorpholinoethanone]
6.7 | O=C1CCCN1CCCN=C1NC(=O)N(c2ccc3[nH]cnc3c2)C1c1cccc2cccnc12 (centres unmarked) [Compound 215, 1-(1H-Benzoimidazol-5-yl)-4-3-(2-oxo-pyrrolidin-1-yl)-propylimino-5-quinolin-8-yl-imidazolidin-2-one]
6.7 | COc1cc(C/N=C2\NC(=O)N(CCCn3ccnc3)C2c2ccccc2Cl)cc(OC)c1OC (centres unmarked) [Compound 26, 5-(2-Chloro-phenyl)-1-(3-imidazol-1-yl-propyl)-4-3,4,5-trimethoxy-benzylimino-imidazolidin-2-one]
5.8 | O=C1N/C(=N\C(c2ccccc2)c2ccccc2)C(c2ccccc2)N1CCCn1ccnc1 (centres unmarked) [Compound 81, 4-Benzhydrylimino-1-(3-imidazol-1-yl-propyl)-5-phenyl-imidazolidin-2-one]
5.8 | O=C1CCCN1CCC/N=C1\NC(=S)N(c2ccc3[nH]cnc3c2)C1c1ccc(Br)cc1 (centres unmarked) [Compound 147, 1-{3-1-(3H-Benzoimidazol-5-yl)-5-(4-bromo-phenyl)-2-thioxo-imidazolidin-(4Z)-ylideneamino-propyl}-pyrrolidin-2-one]
5.8 | CCC1/C(=N\CCc2c[nH]c3ccccc23)NC(=O)N1CCCn1ccnc1 (centres unmarked) [Compound 60, 5-Ethyl-1-(3-imidazol-1-yl-propyl)-4-2-(1H-indol-3-yl)-ethylimino-imidazolidin-2-one]
4.9 | O=C1N/C(=N\CCCN2CCOCC2)C(c2ccnc3ccccc23)N1c1ccc2[nH]cnc2c1 (centres unmarked) [Compound 212, 1-(1H-Benzoimidazol-5-yl)-4-3-morpholin-4-yl-propylimino-5-quinolin-4-yl-imidazolidin-2-one]
4 | O=C1N/C(=N\Cc2ccccc2)C(c2ccccc2Cl)N1CCCn1ccnc1 (centres unmarked) [Compound 97, 4-Benzylimino-5-(2-chloro-phenyl)-1-(3-imidazol-1-yl-propyl)-imidazolidin-2-one]
1.3 | O=C(C/N=C1\NC(=S)N(c2ccc3nc[nH]c3c2)C1c1cc(Br)cs1)N1CCc2ccccc2C1 (centres unmarked) [Compound 182, 2-(1-(1H-benzo[d]imidazol-6-yl)-5-(4-bromothiophen-2-yl)-2-thioxoimidazolidin-4-ylideneamino)-1-(3,4-dihydroisoquinolin-2(1H)-yl)ethanone]
0.4 | O=C1N/C(=N\C2CCc3ccccc32)C(c2ccnc3ccccc23)N1c1ccc2[nH]cnc2c1 (centres unmarked) [Compound 121, 1-(1H-Benzoimidazol-5-yl)-4-indan-1-ylimino-5-quinolin-4-yl-imidazolidin-2-one]
0.4 | S=C1N/C(=N/Cn2nnc3ccccc32)C(c2ccc3c(c2)OCCO3)N1c1ccc2[nH]cnc2c1 (centres unmarked) [Compound 217, 1-(1H-Benzoimidazol-5-yl)-4-benzotriazol-1-ylmethylimino-5-(2,3-dihydro-benzo1,4dioxin-6-yl)-imidazolidine-2-thione]
0.004 | O=C1N/C(=N/CCc2cccs2)C(c2cc3c(cc2Br)OCO3)N1c1ccc2nc[nH]c2c1 (centres unmarked) [Compound 314, 1-(3H-Benzoimidazol-5-yl)-5-(6-bromo-benzo1,3dioxol-5-yl)-4-2-thiophen-2-yl-ethylimino-imidazolidin-2-one]
0.004 | O=C1N/C(=N\C2CCCC2)C(c2ccc(Cl)c(F)c2)N1c1ccc2[nH]cnc2c1 (centres unmarked) [Compound 318, 1-(1H-Benzoimidazol-5-yl)-5-(4-chloro-3-fluoro-phenyl)-4-cyclopentylimino-imidazolidin-2-one]
0.004 | O=C1CCCN1CCC/N=C1/NC(=O)N(c2ccc3nc[nH]c3c2)C1c1ccc(Br)cc1 (centres unmarked) [Compound 321, 1-(3H-Benzoimidazol-5-yl)-5-(4-bromo-phenyl)-4-3-(2-oxo-pyrrolidin-1-yl)-propylimino-imidazolidin-2-one]
0.004 | CN(C)c1ccc(C2/C(=N/C3CCc4ccccc43)NC(=O)N2c2ccc3[nH]cnc3c2)cc1 (centres unmarked) [Compound 242, 1-(1H-Benzoimidazol-5-yl)-5-(4-dimethylamino-phenyl)-4-indan-1-ylimino-imidazolidin-2-one]

Reference: patent publication US20080221086A1, “Novel Inhibitors of Glutaminyl Cyclase” (PROBIODRUG AG, priority 2006, published 2008)
